We go through 4 compounds from ChEMBL document CHEMBL1152104, “Synthesis of partially non-peptidic neurotensin mimetics” (Bioorg Med Chem Lett, 1994).

The structures appear in SMILES notation.

For one experiment, the species on record is Homo sapiens. Description: Concentration required to stimulate cGMP production in NIE-115 neuroblastoma cells at higher doses in 10-100 uM range. It is filed as functional, cell-based.
Experiment [1] addresses T1, Neurotensin receptor type 1 (Rattus norvegicus, UniProt P20789). Description: Equilibrium dissociation constant at cloned rat Neurotensin receptor (NT) receptor expressed in CHO-K1 cells; 0.3-0.7 uM. It is filed as cell-based.
Another experiment concerns CHO-K1. Put plainly: Effect on PI turnover in intact CHO-K1 cells. As to conditions: Cricetulus griseus. It is filed as functional, cell-based.
In experiment [2] the target is T1, Neurotensin receptor type 1. Put plainly: Equilibrium dissociation constant at cloned rat Neurotensin receptor (NT) receptor.

T1 sequence (P20789 whole entry): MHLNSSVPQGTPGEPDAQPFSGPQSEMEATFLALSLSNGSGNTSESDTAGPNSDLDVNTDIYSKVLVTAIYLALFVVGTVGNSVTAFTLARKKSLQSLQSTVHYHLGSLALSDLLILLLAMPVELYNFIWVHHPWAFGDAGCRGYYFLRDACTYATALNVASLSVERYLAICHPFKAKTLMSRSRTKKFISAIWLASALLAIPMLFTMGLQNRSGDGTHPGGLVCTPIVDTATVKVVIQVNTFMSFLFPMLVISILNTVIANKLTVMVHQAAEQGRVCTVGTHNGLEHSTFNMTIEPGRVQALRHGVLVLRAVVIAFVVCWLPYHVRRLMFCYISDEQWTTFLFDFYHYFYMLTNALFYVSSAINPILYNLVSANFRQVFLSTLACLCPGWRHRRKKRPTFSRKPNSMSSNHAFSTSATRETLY

As for `CC[C@H](C)[C@H](NC(=O)[C@H](Cc1ccc(O)cc1)NC(=O)c1[nH]c2c(OCCCCCN=C(N)N)cccc2c1CCCCCCN=C(N)N)C(=O)N[C@@H](CC(C)C)C(=O)O.O=C(O)C(F)(F)F`, in the experiment listed under Homo sapiens, the EC50 (in general, the concentration needed to bring the measured effect to its halfway point) amounted to 19000 nM. In experiment [1], the Kd (in general, the free concentration of one partner at which half of the binding sites on the other are occupied at equilibrium, for simple one-to-one binding) worked out at 300 nM. As to `CC[C@H](C)[C@H](NC(=O)[C@H](Cc1ccc(O)cc1)NC(=O)c1[nH]c2c(OCCCCCN)cccc2c1CCCCCCN)C(=O)N[C@@H](CC(C)C)C(=O)O`, the EC50 in the experiment with CHO-K1 is about 1300 nM. The dissociation constant Kd in experiment [1] was 300 nM. Take `CC[C@H](C)[C@H](NC(=O)[C@H](Cc1c[nH]c2ccccc12)NC(=O)c1[nH]c2c(OCCCCCN=C(N)N)cccc2c1CCCCCCN=C(N)N)C(=O)N[C@@H](CC(C)C)C(=O)O`: the dissociation constant (Kd) in experiment [1] is 300 nM. Consider `CC[C@H](C)[C@H](NC(=O)[C@H](Cc1ccc(O)cc1)NC(=O)c1[nH]c2ccc(OCCCCCN)cc2c1CCCCCCN)C(=O)N[C@@H](CC(C)C)C(=O)O`, for which the Kd in experiment [2] is about 40000 nM.
